Reference: patent publication US20080009418A1, “Selective Inhibitors” (Alchemia LTD., priority 2004, published 2008)

What was measured:
Settings in all cases: compound at 10 μM
[1] = biological target: T1, Human neuropeptide Y (NPY-Y1) (Homo sapiens, UniProt P25929); assay: Radioligand binding, human neuropeptide Y NPY-Y1 membranes, FlashPlate, [125I]-PYY
T1 construct: purchased Perkin Elmer Biosignal
T1 sequence (P25929 1-384): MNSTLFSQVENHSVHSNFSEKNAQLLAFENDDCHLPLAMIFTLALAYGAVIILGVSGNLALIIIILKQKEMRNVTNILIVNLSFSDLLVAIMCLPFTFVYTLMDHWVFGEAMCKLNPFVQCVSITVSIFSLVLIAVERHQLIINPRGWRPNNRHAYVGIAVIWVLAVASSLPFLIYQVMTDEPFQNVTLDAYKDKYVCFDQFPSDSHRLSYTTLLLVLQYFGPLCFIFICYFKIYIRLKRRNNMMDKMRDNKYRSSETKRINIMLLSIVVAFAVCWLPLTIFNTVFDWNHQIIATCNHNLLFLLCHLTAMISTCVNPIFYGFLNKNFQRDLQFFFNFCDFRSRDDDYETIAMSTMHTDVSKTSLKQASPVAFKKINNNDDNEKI
Outline: (§1)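 Cloned human receptor membranes were coated onto FlashPlate wells and incubated with radioligand and compound (added from a 0.5 mM DMSO daughter plate) for 1 hour at room temperature in the dark. Scintillation counting gave percent inhibition, with DMSO defining total and reference ligand defining non-specific binding.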

[2] = biological target: T2, Human melanin-concentrating hormone (MCH1) (Homo sapiens, UniProt Q99705); assay: Radioligand binding, human melanin-concentrating hormone MCH1 membranes, FlashPlate, [125I]-S36057
T2 construct: purchased Perkin Elmer Biosignal
T2 sequence (Q99705 whole entry): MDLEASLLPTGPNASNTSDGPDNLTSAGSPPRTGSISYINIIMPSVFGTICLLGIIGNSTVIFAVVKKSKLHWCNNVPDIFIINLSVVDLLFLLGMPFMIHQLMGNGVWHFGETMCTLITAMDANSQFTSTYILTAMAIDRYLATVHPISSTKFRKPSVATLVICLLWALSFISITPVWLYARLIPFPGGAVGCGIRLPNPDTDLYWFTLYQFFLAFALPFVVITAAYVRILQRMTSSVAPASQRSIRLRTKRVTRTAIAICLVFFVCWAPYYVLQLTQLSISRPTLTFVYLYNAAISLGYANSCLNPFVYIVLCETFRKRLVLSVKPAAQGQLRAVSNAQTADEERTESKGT
Outline: as §1

Human δ-opioid (DOP) = biological target: T3, Human δ-opioid (DOP) (Homo sapiens, UniProt P41143); assay: Radioligand binding, human δ-opioid (DOP) membranes, FlashPlate, [3H]-Bremazocine
T3 construct: purchased Perkin Elmer Biosignal
T3 sequence (P41143 whole entry): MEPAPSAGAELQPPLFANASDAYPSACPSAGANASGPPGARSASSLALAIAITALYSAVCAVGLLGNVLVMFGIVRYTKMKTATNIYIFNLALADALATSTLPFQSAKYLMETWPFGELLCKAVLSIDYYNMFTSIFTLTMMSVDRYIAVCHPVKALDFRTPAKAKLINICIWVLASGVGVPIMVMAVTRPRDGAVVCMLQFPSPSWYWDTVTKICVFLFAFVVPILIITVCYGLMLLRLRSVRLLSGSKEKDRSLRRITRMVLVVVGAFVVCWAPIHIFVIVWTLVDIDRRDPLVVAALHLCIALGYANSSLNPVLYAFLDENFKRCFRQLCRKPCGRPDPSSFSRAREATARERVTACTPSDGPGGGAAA
Outline: as §1

Human melanocortin (MC5) = biological target: T4, Human melanocortin (MC5) (Homo sapiens, UniProt P33032); assay: Radioligand binding, human melanocortin MC5 membranes, FlashPlate, [125I]-NDP-αMSH
T4 construct: purchased Perkin Elmer Biosignal
T4 sequence (P33032 whole entry): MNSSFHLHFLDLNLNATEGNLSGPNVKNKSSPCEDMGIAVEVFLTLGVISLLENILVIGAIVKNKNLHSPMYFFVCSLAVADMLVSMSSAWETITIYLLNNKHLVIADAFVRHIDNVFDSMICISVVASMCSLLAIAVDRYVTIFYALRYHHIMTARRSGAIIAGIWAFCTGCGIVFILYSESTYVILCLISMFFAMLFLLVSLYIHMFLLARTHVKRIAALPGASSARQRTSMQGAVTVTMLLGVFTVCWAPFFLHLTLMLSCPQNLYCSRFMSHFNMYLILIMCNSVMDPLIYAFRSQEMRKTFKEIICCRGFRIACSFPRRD
Outline: as §1

Human neurokinin (NK1) = biological target: T5, Human neurokinin (NK1) (Homo sapiens, UniProt P25103); assay: Radioligand binding, human neurokinin NK1 membranes, filtration, [125I]-Substance P
T5 construct: purchased Perkin Elmer Biosignal
T5 sequence (P25103 whole entry): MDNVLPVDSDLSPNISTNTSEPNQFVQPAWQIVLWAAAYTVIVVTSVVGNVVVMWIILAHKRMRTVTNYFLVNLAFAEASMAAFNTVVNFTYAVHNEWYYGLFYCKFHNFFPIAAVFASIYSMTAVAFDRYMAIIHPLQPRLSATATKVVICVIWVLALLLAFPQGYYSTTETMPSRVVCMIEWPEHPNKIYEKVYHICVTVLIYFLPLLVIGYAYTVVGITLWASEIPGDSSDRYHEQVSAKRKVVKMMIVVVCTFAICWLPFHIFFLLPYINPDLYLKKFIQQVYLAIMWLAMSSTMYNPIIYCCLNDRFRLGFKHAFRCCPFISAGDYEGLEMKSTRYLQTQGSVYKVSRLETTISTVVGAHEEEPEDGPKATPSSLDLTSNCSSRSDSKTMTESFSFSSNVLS
Outline: (§2)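 Filtration binding on cloned human receptor membranes (1 Unit/well), [125I]-Substance P for NK1 and [3H]-Diprenorphine for KOP, 1 h at room temperature. Filters PEI-presoaked, washed with cold 50 mM Tris-HCl pH 7.4, counted by scintillation; percent inhibition calculated, reference ligand defining non-specific binding.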

Mouse urotensin (mUR2) = biological target: T6, Mouse urotensin (mUR2) (Mus musculus, UniProt Q8VIH9); assay: Radioligand binding, mouse urotensin mUR2 membranes, FlashPlate, [125I]-Urotensin II
T6 construct: purchased Perkin Elmer Biosignal
T6 sequence (Q8VIH9 1-385): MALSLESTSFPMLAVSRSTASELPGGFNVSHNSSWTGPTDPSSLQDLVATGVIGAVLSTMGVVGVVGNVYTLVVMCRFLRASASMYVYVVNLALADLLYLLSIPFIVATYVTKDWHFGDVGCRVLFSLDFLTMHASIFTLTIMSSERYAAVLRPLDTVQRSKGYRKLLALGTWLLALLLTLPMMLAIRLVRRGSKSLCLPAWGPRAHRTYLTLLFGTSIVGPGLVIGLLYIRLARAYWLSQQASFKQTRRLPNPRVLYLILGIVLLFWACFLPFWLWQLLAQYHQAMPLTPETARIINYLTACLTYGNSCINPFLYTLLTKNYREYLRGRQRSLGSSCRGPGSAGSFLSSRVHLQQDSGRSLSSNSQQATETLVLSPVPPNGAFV
Outline: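 Cloned mouse urotensin (mUR2) receptor membranes from Perkin Elmer Biosignal were immobilized in FlashPlate microplates using a proprietary coating. Each well got 19.5 μl buffer, then 0.5 μl of DMSO, reference ligand, or compound. Adding 5 μl of [125I]-Urotensin II, diluted to 5× final concentration in binding buffer, started binding. Plates were sealed with TopSeal-A and incubated 1 hour at room temperature in the dark. Wells were counted for 30 seconds each on a TopCount after a 60-second delay, and percentage inhibition was calculated.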

Human Melanocortin (MC3) = biological target: T7, Human Melanocortin (MC3) (Homo sapiens, UniProt P41968); assay: Radioligand binding, human melanocortin MC3 membranes, FlashPlate, [125I]-NDP-αMSH
T7 construct: purchased Perkin Elmer Biosignal
T7 sequence (P41968 whole entry): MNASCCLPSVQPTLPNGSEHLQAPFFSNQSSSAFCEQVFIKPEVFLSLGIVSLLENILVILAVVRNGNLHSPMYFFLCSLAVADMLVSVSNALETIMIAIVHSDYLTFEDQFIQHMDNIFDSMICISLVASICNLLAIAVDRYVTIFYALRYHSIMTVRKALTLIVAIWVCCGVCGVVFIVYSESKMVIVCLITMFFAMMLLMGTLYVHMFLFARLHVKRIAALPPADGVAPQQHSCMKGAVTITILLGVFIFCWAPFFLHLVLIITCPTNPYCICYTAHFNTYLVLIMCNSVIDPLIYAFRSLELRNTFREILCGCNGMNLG
Outline: as §1

Human κ-Opioid (KOP) = biological target: T8, Human κ-Opioid (KOP) (Homo sapiens, UniProt P41145); assay: Radioligand binding, human κ-opioid (KOP) membranes, filtration, [3H]-Diprenorphine
T8 construct: purchased Perkin Elmer Biosignal
T8 sequence (P41145 whole entry): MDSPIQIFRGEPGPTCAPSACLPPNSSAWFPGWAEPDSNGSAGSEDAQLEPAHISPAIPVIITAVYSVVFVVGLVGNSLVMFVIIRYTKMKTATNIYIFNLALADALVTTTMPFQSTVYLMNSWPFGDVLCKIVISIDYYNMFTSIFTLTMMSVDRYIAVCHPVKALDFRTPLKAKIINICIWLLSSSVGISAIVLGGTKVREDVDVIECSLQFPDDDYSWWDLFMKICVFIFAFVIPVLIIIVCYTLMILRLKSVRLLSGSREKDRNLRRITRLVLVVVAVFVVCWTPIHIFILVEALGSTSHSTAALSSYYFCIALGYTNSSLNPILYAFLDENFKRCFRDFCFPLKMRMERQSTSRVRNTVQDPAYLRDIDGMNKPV
Outline: as §2

Human opioid (ORL1) = biological target: T9, Human opioid (ORL1) (Homo sapiens, UniProt P41146); assay: Radioligand binding, human opioid ORL1 membranes, FlashPlate, [125I]-Nociceptin
T9 construct: purchased Perkin Elmer Biosignal
T9 sequence (P41146 whole entry): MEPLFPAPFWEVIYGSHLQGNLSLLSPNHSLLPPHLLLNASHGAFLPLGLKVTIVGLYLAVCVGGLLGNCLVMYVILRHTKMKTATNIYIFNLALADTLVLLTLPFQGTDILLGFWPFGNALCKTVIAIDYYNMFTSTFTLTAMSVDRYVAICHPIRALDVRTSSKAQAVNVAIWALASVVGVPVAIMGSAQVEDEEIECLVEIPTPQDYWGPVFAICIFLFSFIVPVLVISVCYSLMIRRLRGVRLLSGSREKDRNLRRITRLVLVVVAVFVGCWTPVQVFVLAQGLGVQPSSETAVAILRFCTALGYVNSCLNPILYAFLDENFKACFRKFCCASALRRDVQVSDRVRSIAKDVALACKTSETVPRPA
Outline: as §1

Human Melanocortin (MC4) = biological target: T10, Human Melanocortin (MC4) (Homo sapiens, UniProt P32245); assay: Radioligand binding, human melanocortin MC4 membranes, FlashPlate, [125I]-NDP-αMSH
T10 construct: purchased Perkin Elmer Biosignal
T10 sequence (P32245 whole entry): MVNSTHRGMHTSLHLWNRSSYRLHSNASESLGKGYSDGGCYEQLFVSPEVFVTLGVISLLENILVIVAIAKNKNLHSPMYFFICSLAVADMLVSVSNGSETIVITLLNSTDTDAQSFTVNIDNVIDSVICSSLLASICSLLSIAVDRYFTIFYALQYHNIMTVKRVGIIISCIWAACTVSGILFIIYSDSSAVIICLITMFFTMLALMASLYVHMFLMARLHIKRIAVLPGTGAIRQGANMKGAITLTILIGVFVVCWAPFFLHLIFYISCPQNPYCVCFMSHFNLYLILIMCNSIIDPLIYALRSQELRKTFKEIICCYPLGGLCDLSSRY
Outline: as §1

Human μ-opioid (MOP) = biological target: T11, Human μ-opioid (MOP) (Homo sapiens, UniProt P35372); assay: Radioligand binding, human μ-opioid (MOP) membranes, FlashPlate, [3H]-Naloxone
T11 construct: purchased Perkin Elmer Biosignal
T11 sequence (P35372 whole entry): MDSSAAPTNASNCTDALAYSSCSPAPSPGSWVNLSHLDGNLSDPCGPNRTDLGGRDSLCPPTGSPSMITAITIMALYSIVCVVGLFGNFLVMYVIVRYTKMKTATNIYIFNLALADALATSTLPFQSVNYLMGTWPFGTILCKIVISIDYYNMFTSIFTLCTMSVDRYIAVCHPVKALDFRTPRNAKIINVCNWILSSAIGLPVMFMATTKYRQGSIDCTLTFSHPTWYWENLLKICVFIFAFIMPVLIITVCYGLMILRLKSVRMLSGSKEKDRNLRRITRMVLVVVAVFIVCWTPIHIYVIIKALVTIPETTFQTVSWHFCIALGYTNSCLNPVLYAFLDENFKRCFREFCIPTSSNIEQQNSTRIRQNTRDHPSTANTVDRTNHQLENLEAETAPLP
Outline: as §1

CO[C@H]1[C@H](O)[C@@H](COCc2ccc3ccccc3c2)OC(OCc2ccc(-c3ccccc3)cc2)[C@@H]1NC(=O)CNC(=N)N (stereo partly drawn) [compound 55]
A9 radioligand binding inhibition ([1]; human NPY-Y1 membranes): − (“−” indicates less than 50% inhibition at 10 μM)
A6 radioligand binding inhibition ([2]; human MCH1 membranes): + (“+” indicates greater than 50% inhibition at 10 μM)
A1 radioligand binding inhibition (Human δ-opioid (DOP); human δ-opioid (DOP) membranes): − (“−” indicates less than 50% inhibition at 10 μM)
A5 radioligand binding inhibition (Human melanocortin (MC5); human melanocortin MC5 membranes): + (“+” indicates greater than 50% inhibition at 10 μM)
A8 radioligand binding inhibition (Human neurokinin (NK1); human neurokinin NK1 membranes): + (“+” indicates greater than 50% inhibition at 10 μM)
A11 radioligand binding inhibition (Mouse urotensin (mUR2); mouse urotensin mUR2 membranes): − (“−” indicates less than 50% inhibition at 10 μM)
A3 radioligand binding inhibition (Human Melanocortin (MC3); human melanocortin MC3 membranes): + (“+” indicates greater than 50% inhibition at 10 μM)
A2 radioligand binding inhibition (Human κ-Opioid (KOP); human κ-opioid (KOP) membranes): + (“+” indicates greater than 50% inhibition at 10 μM)
A10 radioligand binding inhibition (Human opioid (ORL1); human ORL1 membranes): + (“+” indicates greater than 50% inhibition at 10 μM)
A4 radioligand binding inhibition (Human Melanocortin (MC4); human melanocortin MC4 membranes): + (“+” indicates greater than 50% inhibition at 10 μM)
A7 radioligand binding inhibition (Human μ-opioid (MOP); human μ-opioid (MOP) membranes): + (“+” indicates greater than 50% inhibition at 10 μM)

CO[C@H]1[C@H](O)[C@@H](COCc2cccc(O)c2)OC(OCc2ccc(-c3ccccc3)cc2)[C@@H]1NC(=O)CCCNC(=N)N (stereo partly drawn) [compound 149]
A9 radioligand binding, percentage inhibition ([1]; [125I]-PYY): − (“−” indicates less than 50% inhibition at 10 μM)
A6 radioligand binding, percentage inhibition ([2]; [125I]-S36057): − (“−” indicates less than 50% inhibition at 10 μM)
A1 radioligand binding, percentage inhibition (Human δ-opioid (DOP); [3H]-Bremazocine): − (“−” indicates less than 50% inhibition at 10 μM)
A5 radioligand binding, percentage inhibition (Human melanocortin (MC5); [125I]-NDP-αMSH): − (“−” indicates less than 50% inhibition at 10 μM)
A8 radioligand binding, percentage inhibition (Human neurokinin (NK1); [125I]-Substance P): + (“+” indicates greater than 50% inhibition at 10 μM)
A11 radioligand binding, percentage inhibition (Mouse urotensin (mUR2); [125I]-Urotensin II): − (“−” indicates less than 50% inhibition at 10 μM)
A3 radioligand binding, percentage inhibition (Human Melanocortin (MC3); [125I]-NDP-αMSH): − (“−” indicates less than 50% inhibition at 10 μM)
A2 radioligand binding, percentage inhibition (Human κ-Opioid (KOP); [3H]-Diprenorphine): − (“−” indicates less than 50% inhibition at 10 μM)
A10 radioligand binding, percentage inhibition (Human opioid (ORL1); [125I]-Nociceptin): − (“−” indicates less than 50% inhibition at 10 μM)
A4 radioligand binding, percentage inhibition (Human Melanocortin (MC4); [125I]-NDP-αMSH): − (“−” indicates less than 50% inhibition at 10 μM)
A7 radioligand binding, percentage inhibition (Human μ-opioid (MOP); [3H]-Naloxone): + (“+” indicates greater than 50% inhibition at 10 μM)

CSC1OC(COCc2ccc(-c3ccccc3)cc2)C(O)C(OCc2ccc3ccccc3c2)C1NC(=O)CCNC(=N)N (stereo not drawn) [compound 314]
A9: inhibition of radioligand binding, human neuropeptide Y (NPY-Y1) ([1]; [125I]-PYY): − (“−” indicates less than 50% inhibition at 10 μM)
A6: inhibition of radioligand binding, human melanin-concentrating hormone (MCH1) ([2]; [125I]-S36057): − (“−” indicates less than 50% inhibition at 10 μM)
A1: inhibition of radioligand binding, human δ-opioid (DOP) (Human δ-opioid (DOP); [3H]-Bremazocine): − (“−” indicates less than 50% inhibition at 10 μM)
A5: inhibition of radioligand binding, human melanocortin (MC5) (Human melanocortin (MC5); [125I]-NDP-αMSH): − (“−” indicates less than 50% inhibition at 10 μM)
A8: inhibition of radioligand binding, human neurokinin (NK1) (Human neurokinin (NK1); [125I]-Substance P): + (“+” indicates greater than 50% inhibition at 10 μM)
A11: inhibition of radioligand binding, mouse urotensin (mUR2) (Mouse urotensin (mUR2); [125I]-Urotensin II): − (“−” indicates less than 50% inhibition at 10 μM)
A3: inhibition of radioligand binding, human melanocortin (MC3) (Human Melanocortin (MC3); [125I]-NDP-αMSH): − (“−” indicates less than 50% inhibition at 10 μM)
A2: inhibition of radioligand binding, human κ-opioid (KOP) (Human κ-Opioid (KOP); [3H]-Diprenorphine): − (“−” indicates less than 50% inhibition at 10 μM)
A10: inhibition of radioligand binding, human opioid (ORL1) (Human opioid (ORL1); [125I]-Nociceptin): − (“−” indicates less than 50% inhibition at 10 μM)
A4: inhibition of radioligand binding, human melanocortin (MC4) (Human Melanocortin (MC4); [125I]-NDP-αMSH): − (“−” indicates less than 50% inhibition at 10 μM)
A7: inhibition of radioligand binding, human μ-opioid (MOP) (Human μ-opioid (MOP); [3H]-Naloxone): − (“−” indicates less than 50% inhibition at 10 μM)
